These results are taken from patent US9890166B2, “Imidazopyrrolidine derivatives and their use in the treatment of disease” (NOVARTIS AG, priority 2013, dated 2018).

pIC50: −log10 of the molar value. Some results are limits rather than exact numbers.

The target in experiment [1] is CREBBP bromodomain (His-CREBBP(1081-1197)) (Homo sapiens (Human), UniProt Q92793). In words: AlphaScreen in-vitro binding assay for CREBBP. Particulars: single determination or n ≧ 2 independent determinations, read-out: Biochemical IC50 CREBBP. The method, boiled down:
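Reactions at 30 °C for 35 min, then Ni-chelate acceptor and streptavidin donor beads in HEPES pH 7.5, NaCl, Tween20, BSA, 60 min at room temperature. Eight-point compound series; IC50 by non-linear regression of percent inhibition.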

The target of experiment [2] is BRD3 (His-Brd3(20-477)) (Homo sapiens (Human), UniProt Q15059). In words: TR-FRET in-vitro binding assay for BRD3. The settings on record: single determination or n ≧ 2 independent determinations, read-out: Biochemical IC50 BRD3. Summed up: (§1)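 TR-FRET binding with His-tagged bromodomain constructs, 8-point compound dilutions from 10 mM DMSO stocks. Reactions incubated 35 min at 30° C in 13.55 μL, read on an EnVision multilabel reader.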
BRD3 (His-Brd3(20-477)), sequence (Q15059 20-477): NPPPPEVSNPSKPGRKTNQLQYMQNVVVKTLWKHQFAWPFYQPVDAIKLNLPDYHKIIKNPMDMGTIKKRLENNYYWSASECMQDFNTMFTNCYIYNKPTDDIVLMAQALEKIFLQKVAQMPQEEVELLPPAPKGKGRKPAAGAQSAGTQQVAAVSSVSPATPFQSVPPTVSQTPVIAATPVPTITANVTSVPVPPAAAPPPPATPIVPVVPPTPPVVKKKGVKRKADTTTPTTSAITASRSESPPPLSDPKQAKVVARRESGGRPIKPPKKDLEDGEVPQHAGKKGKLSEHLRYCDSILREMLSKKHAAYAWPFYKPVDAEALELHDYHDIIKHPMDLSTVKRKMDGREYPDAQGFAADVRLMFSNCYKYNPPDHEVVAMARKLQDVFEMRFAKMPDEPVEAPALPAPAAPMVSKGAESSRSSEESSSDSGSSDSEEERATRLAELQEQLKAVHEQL

Experiment [3] concerns MV-4-11 cells. In words: Cell growth inhibition assay (CellTiter-Glo), MV-4-11.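 As to all read-outs here: cellular ATP luminescence after 4 days, 3-fold dilution series from 10 µM top dose, vehicle (0.1% DMSO) set to 100%, cell-free medium set to −100%, day 0 corrected.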 The settings on record: for GI50: Homo sapiens, MV4-11, read-out: MV-4-11 GI50; for MV-4-11 TGI: MV-4-11 cells, total growth inhibition, CellTiter-Glo. For orientation: Cellular ATP, detected with luciferase, serves as a proxy for viable cell number.
Experiment [4] relates to THP-1 cells. The experiment in a line: Cell growth inhibition assay (CellTiter-Glo), THP-1.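 As to all read-outs here: viability read as cellular ATP luminescence after 4 days, 3-fold dilution series from 10 µM, DMSO vehicle-treated cells taken as 100%, cell-free medium wells as −100%.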 Particulars: for GI50: Homo sapiens, THP-1, read-out: THP-1 GI50; for THP-1 TGI: THP-1 cells, total growth inhibition, CellTiter-Glo.
Experiment [5] has as its target BRD2 (His-Brd2(60-472)) (Homo sapiens (Human), UniProt P25440). The experiment in a line: TR-FRET in-vitro binding assay for BRD2. Particulars: single determination or n ≧ 2 independent determinations, read-out: Biochemical IC50 BRD2. Summed up: as §1
A general note: TR-FRET usually uses a lanthanide donor and a delayed reading to cut background.

The subject of experiment [6] is K-562 cells. The experiment in a line: Cell growth inhibition assay (CellTiter-Glo), K-562.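 As to all read-outs here: cellular ATP measured by luminescence after 4 days of exposure, 3-fold dilution series from 10 µM, DMSO vehicle-treated cells define 100%, cell-free medium wells −100%.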 Particulars: for GI50: Homo sapiens, K562, read-out: K-562 GI50; for K-562 TGI: K-562 cells, total growth inhibition, CellTiter-Glo.
For experiment [7], the target named is BRD4 (His-Brd4(44-477)) (Homo sapiens (Human), UniProt O60885). In words: TR-FRET in-vitro binding assay for BRD4. Particulars: single determination or n ≧ 2 independent determinations, read-out: Biochemical IC50 BRD4. Summed up: as §1

BRD2 (His-Brd2(60-472)), sequence (P25440 60-472): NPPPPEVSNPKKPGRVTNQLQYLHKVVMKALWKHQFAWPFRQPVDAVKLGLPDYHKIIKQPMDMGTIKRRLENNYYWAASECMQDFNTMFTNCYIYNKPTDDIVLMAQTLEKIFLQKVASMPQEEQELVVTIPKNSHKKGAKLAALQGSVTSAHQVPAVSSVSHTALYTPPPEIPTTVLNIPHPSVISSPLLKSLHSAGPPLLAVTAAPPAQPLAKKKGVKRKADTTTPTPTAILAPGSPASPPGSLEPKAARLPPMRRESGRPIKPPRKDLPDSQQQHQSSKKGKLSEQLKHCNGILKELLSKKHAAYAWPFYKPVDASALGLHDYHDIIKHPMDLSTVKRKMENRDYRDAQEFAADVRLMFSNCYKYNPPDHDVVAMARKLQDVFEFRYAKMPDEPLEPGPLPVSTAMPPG
CREBBP bromodomain (His-CREBBP(1081-1197)), sequence (Q92793 1081-1197): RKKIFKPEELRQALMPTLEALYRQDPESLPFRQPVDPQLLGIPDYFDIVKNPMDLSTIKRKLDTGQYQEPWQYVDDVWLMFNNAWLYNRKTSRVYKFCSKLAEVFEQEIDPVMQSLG

As to `Cc1cc(N2C(=O)c3nc(C4=CCOCC4)n(C(C)C)c3C2c2ccc(Cl)cc2)cc2c1nnn2C` (centres unmarked) [Example 79, 6-(4-chlorophenyl)-2-(3,6-dihydro-2H-pyran-4-yl)-5-(1,4-dimethyl-1H-benzo[d][1,2,3]triazol-6-yl)-1-isopropyl-5,6-dihydropyrrolo[3,4-d]imidazol-4(1H)-one], the pIC50 (in general, −log10 of the IC50, conventionally taken in molar units) in experiment [1] was 5.47; in experiment [2], 7.67; in experiment [5], 7.34; in experiment [7], 7.59. The GI50 (in general, the concentration at which growth is held to half of that of the control) in experiment [3] was found to be 5.58 nM; in experiment [4] it was 7.92 nM; in experiment [6], 29.6 nM. The “MV-4-11 TGI” value in experiment [3] amounted to 11.1 nM. In experiment [4], the “THP-1 TGI” value came to 17.9 nM. Also, in experiment [6], the “K-562 TGI” value was more than 10000 nM.
Consider `Cc1cc(N2C(=O)c3nc(C4CCOCC4)n(C(C)C)c3C2c2ccc(Cl)cc2)cc2c1nnn2C` (centres unmarked) [Example 80, 6-(4-chlorophenyl)-5-(1,4-dimethyl-1H-benzo[d][1,2,3]triazol-6-yl)-1-isopropyl-2-(tetrahydro-2H-pyran-4-yl)-5,6-dihydropyrrolo[3,4-d]imidazol-4(1H)-one], for which the pIC50 was 5.84 in experiment [1], 7.92 in experiment [2], 7.77 in experiment [5] and 7.89 in experiment [7]. Further, the GI50 in experiment [3] came out at 4.14 nM; in experiment [4], 5.53 nM; in experiment [6], 28.8 nM. In experiment [3], the “MV-4-11 TGI” value turned out to be 9.45 nM. Further, the “THP-1 TGI” value in experiment [4] stood at 15.4 nM. In addition, the “K-562 TGI” value in experiment [6] is more than 10000 nM.
Regarding `Cc1cc(N2C(=O)c3nc(C4=CCOCC4)n(C(C)C)c3[C@H]2c2ccc(Cl)cc2)cc2c1nnn2C` [Example 81, (R)-6-(4-chlorophenyl)-2-(3,6-dihydro-2H-pyran-4-yl)-5-(1,4-dimethyl-1H-benzo[d][1,2,3]triazol-6-yl)-1-isopropyl-5,6-dihydropyrrolo[3,4-d]imidazol-4(1H)-one], the pIC50 is 5.82 in experiment [1], more than 7.96 in experiment [2], more than 7.96 in experiment [5] and more than 7.96 in experiment [7]. Also, the GI50 in experiment [3] was found to be 3.42 nM; in experiment [4], 3.82 nM; in experiment [6], 19.5 nM. The “MV-4-11 TGI” value in experiment [3] was 5.405 nM. Besides, in experiment [4], the “THP-1 TGI” value was 10.7 nM. Besides, the “K-562 TGI” value in experiment [6] was more than 10000 nM.
For `Cc1cc(N2C(=O)c3nc(C4CCOCC4)n(C(C)C)c3[C@H]2c2ccc(Cl)cc2)cc2c1nnn2C` [Example 82, (R)-6-(4-chlorophenyl)-5-(1,4-dimethyl-1H-benzo[d][1,2,3]triazol-6-yl)-1-isopropyl-2-(tetrahydro-2H-pyran-4-yl)-5,6-dihydropyrrolo[3,4-d]imidazol-4(1H)-one], the pIC50 was 5.97 in experiment [1], more than 7.96 in experiment [2], 7.89 in experiment [5] and more than 7.96 in experiment [7]. The GI50 in experiment [3] is 1.57 nM; in experiment [4], 2.54 nM; in experiment [6], 8.96 nM. In addition, the “MV-4-11 TGI” value in experiment [3] was determined as 6.03 nM. Also, in experiment [4], the “THP-1 TGI” value was 9.82 nM. Besides, the “K-562 TGI” value in experiment [6] is more than 10000 nM.
With `COc1ccc(-c2nc3c(n2C(C)C)C(c2ccc(Cl)cc2)N(c2cc(C)c4nnn(C)c4c2)C3=O)cn1` (centres unmarked) [Example 83, 6-(4-chlorophenyl)-5-(1,4-dimethyl-1H-benzo[d][1,2,3]triazol-6-yl)-1-isopropyl-2-(6-methoxypyridin-3-yl)-5,6-dihydropyrrolo[3,4-d]imidazol-4(1H)-one], the negative logarithm of the IC50 (pIC50) in experiment [1] is less than 4.43; in experiment [2], 7.52; in experiment [5] it was 7.19; in experiment [7], 7.62. The GI50 is 23.9 nM in experiment [3], 27.1 nM in experiment [4] and 105 nM in experiment [6]. Also, in experiment [3], the “MV-4-11 TGI” value was 46.4 nM. Moreover, the “THP-1 TGI” value in experiment [4] stood at 72.2 nM. Also, the “K-562 TGI” value in experiment [6] was more than 10000 nM.
For the compound `Cc1cc(N2C(=O)c3nc(C4=CCOCC4)n(C(C)C)c3[C@H]2c2ccc(Cl)cc2)cn2c(C)nnc12` [Example 84, (R)-6-(4-chlorophenyl)-2-(3,6-dihydro-2H-pyran-4-yl)-5-(3,8-dimethyl-[1,2,4]triazolo[4,3-a]pyridin-6-yl)-1-isopropyl-5,6-dihydropyrrolo[3,4-d]imidazol-4(1H)-one], the pIC50 in experiment [1] was 5.46; in experiment [2] it was 7.62; in experiment [5], 7.44; in experiment [7] it was 7.74. The GI50 in experiment [3] came to 14.6 nM; in experiment [4], 44 nM; in experiment [6], 73.2 nM. Besides, in experiment [3], the “MV-4-11 TGI” value came to 29.4 nM. Moreover, in experiment [4], the “THP-1 TGI” value worked out at 99.8 nM. Besides, the “K-562 TGI” value in experiment [6] was more than 10000 nM.
Consider `Cc1cc(N2C(=O)c3nc(C4=CCCN(C)C4)n(C(C)C)c3[C@H]2c2ccc(Cl)cc2)cn2c(C)nnc12` [Example 85], for which the pIC50 in experiment [1] is 5.44; in experiment [2], 7.70; in experiment [5], 7.54; in experiment [7] it was 7.82. Also, the figures for the GI50 in experiment [3], in experiment [4] and in experiment [6] were 16.3 nM, 138 nM and 277 nM, respectively. For the same compound, the “MV-4-11 TGI” value in experiment [3] was 32.5 nM. In addition, the “THP-1 TGI” value in experiment [4] worked out at 370 nM. Further, the “K-562 TGI” value in experiment [6] is more than 10000 nM.
With `Cc1cc(N2C(=O)c3nc(C4CCOCC4)n(C(C)C)c3C2c2ccc(Cl)cc2)cn2c(C)nnc12` (centres unmarked) [Example 86, 6-(4-chlorophenyl)-5-(3,8-dimethyl-[1,2,4]triazolo[4,3-a]pyridin-6-yl)-1-isopropyl-2-(tetrahydro-2H-pyran-4-yl)-5,6-dihydropyrrolo[3,4-d]imidazol-4(1H)-one], the pIC50 in experiment [1] is 5.42; in experiment [2], more than 7.96; in experiment [5] it was 7.72; in experiment [7], more than 7.96. Further, the GI50 in experiment [3] came out at 20.8 nM; in experiment [4], 57 nM; in experiment [6] it was 250 nM. Moreover, in experiment [3], the “MV-4-11 TGI” value was 43 nM. Also, in experiment [4], the “THP-1 TGI” value was determined as 155 nM. For the same compound, the “K-562 TGI” value in experiment [6] was more than 10000 nM.
On to `Cc1cc(N2C(=O)c3nc(C4CCOCC4)n(C(C)C)c3[C@H]2c2ccc(Cl)cc2)cn2c(C)nnc12` [Example 87, (R)-6-(4-chlorophenyl)-5-(3,8-dimethyl-[1,2,4]triazolo[4,3-a]pyridin-6-yl)-1-isopropyl-2-(tetrahydro-2H-pyran-4-yl)-5,6-dihydropyrrolo[3,4-d]imidazol-4(1H)-one], for which the pIC50 in experiment [1] was 5.74; in experiment [2], 7.85; in experiment [5], 7.60; in experiment [7] it was 7.85. Further, the concentration for 50% growth inhibition (GI50) in experiment [3] was determined as 8.54 nM; in experiment [4] it was 27.6 nM; in experiment [6], 166 nM. The “MV-4-11 TGI” value in experiment [3] came to 14.45 nM. Moreover, in experiment [4], the “THP-1 TGI” value was 79.2 nM. Moreover, the “K-562 TGI” value in experiment [6] was more than 10000 nM.
Regarding `Cc1cc(N2C(=O)c3nc(C4=CCOCC4)n(C(C)C)c3C2c2ccc(Cl)cc2)cn2c(CF)nnc12` (centres unmarked) [Example 88, 6-(4-chlorophenyl)-2-(3,6-dihydro-2H-pyran-4-yl)-5-(3-(fluoromethyl)-8-methyl-[1,2,4]triazolo[4,3-a]pyridin-6-yl)-1-isopropyl-5,6-dihydropyrrolo[3,4-d]imidazol-4(1H)-one], the pIC50 in experiment [1] was 4.82; in experiment [2], 7.37; in experiment [5], 7.12; in experiment [7] it was 7.41. Also, the GI50 in experiment [3] came to 23.7 nM; in experiment [4], 42.8 nM; in experiment [6] it was 172 nM. The “MV-4-11 TGI” value in experiment [3] was found to be 39.85 nM. The “THP-1 TGI” value in experiment [4] was 112.1 nM. Also, the “K-562 TGI” value in experiment [6] is more than 10000 nM.
On to `COc1ncccc1-c1nc2c(n1C(C)C)C(c1ccc(Cl)cc1)N(c1cc(C)c3nnc(CF)n3c1)C2=O` (centres unmarked) [Example 89, 6-(4-chlorophenyl)-5-(3-(fluoromethyl)-8-methyl-[1,2,4]triazolo[4,3-a]pyridin-6-yl)-1-isopropyl-2-(2-methoxypyridin-3-yl)-5,6-dihydropyrrolo[3,4-d]imidazol-4(1H)-one], for which the pIC50 is 5.08 in experiment [1], 7.89 in experiment [2], 7.46 in experiment [5] and 7.82 in experiment [7]. The results for the GI50 in experiment [3], in experiment [4] and in experiment [6] were 10.3 nM, 14.9 nM and 63.6 nM, respectively. Besides, the “MV-4-11 TGI” value in experiment [3] worked out at 20.8 nM. Moreover, the “THP-1 TGI” value in experiment [4] was found to be 40.45 nM. Further, the “K-562 TGI” value in experiment [6] was more than 10000 nM.
